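Test compounds were applied to cells in 96-well plates for 48 hours at 5 doses. TGI denotes the concentration required for complete inhibition of growth.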
Key:
Assay in all cases: NCI tumour cell line growth inhibition, 48 h
[1] = tested on: DLD-1 colon
[2] = tested on: SNB-78 CNS
[3] = tested on: P388 leukemia
[4] = tested on: P388/ADR leukemia
[5] = tested on: SN12K1 renal

Row | Compound | TGI [1] [µM] | TGI [2] [µM] | TGI [3] [µM] | TGI [4] [µM] | TGI [5] [µM]
1 | Cc1[nH]nc(N)c1C(N)=O | > 100 | > 100 |  |  | 
2 | OC1CCOc2ccccc21 (stereo not given) | > 100 |  |  |  | 
3 | NC(=O)CCC(N=C(N)c1csc(C2OC(CO)C(O)C2O)n1)C(=O)O (stereo not given) | > 100 | > 100 |  |  | 
4 | CNC(=O)SCC(N)C(=O)O (stereo not given) | > 100 | > 100 | 39.1 | 58 | > 100
5 | CC1CCC2(C(=O)O)CCC3(C)C(=CCC4C5(C)CCC(O)C(C)(C)C5CCC43C)C2C1C (stereo not given) | 17 | 29.3 | 9.48 | 17.8 | 12.9

— PubChem BioAssay (NCI)
